{"source": "paper PMC5768343", "about": "“A natural inhibitor of kidney-type glutaminase: a withanolide from Physalis pubescens with potent anti-tumor activity” (Oncotarget, 2017)", "key": {"SW1990 cells [1]": {"tested_on": "SW1990 cells", "experiment": "Combination with benserazide, CCK8 viability and CompuSyn combination index", "type": "cell-based, human", "details": "combined use with benserazide, ratio less than 1:50, CompuSyn", "text": "Tumor cells are speculated to maintain growth and proliferation through a variety of energy metabolism pathways. Therefore, targeting at a single energy metabolism material might not be an effective method for cancer therapy. It has been determined that growing cancer cells were strongly dependent on energy sources such as glucose and glutamine. We supposed that the blocking of both glucose and glutamine metabolism pathways could display a synergistic tumor inhibition. Hexokinase 2 (HK2) was the crucial enzyme controlling the first step of glycolysis, and systemic deletion of HK2 can impair the tumor progression in mouse models. Nowadays, Metformin (Met), 2-Deoxyglucose (2-DG) and 3-Bromopyruvate (3-BrPA) are most commonly reported HK2 inhibitors. […] The combined inhibitory effects of physapubescin K and benserazide on the growth of SW1990 cells were evaluated. […]\nFigure 8 Synergy of physapubescin K (PSBK) in combination treatments (A) Cells were cultured for 1 day with or without the indicated doses of PSBK and benserazide, and cell viability was evaluated by CCK8 assay. (B) At the indicated concentration ratio of PSBK: benserazide combinations at different effect levels, ED50, ED75 and ED95 were calculated using the CompuSyn software. […] The proportion of cells in proliferation is counted by manual counting (D)."}, "[2]": {"tested_on": "human pancreatic cancer cells (SW1990)", "experiment": "CCK8 cytotoxicity / proliferation assay, SW1990", "details": "for relative cell vitality: CCK8", "experimental": "(§1) The SW1990, HT1080, and A375-S2 human tumor cell lines were obtained from ATCC (Manassas, VA, USA). […] SW1990, HT1080, and LO2 cells were cultured in DMEM medium with 10% fetal bovine serum (FBS). All of these cells were cultured at 37°C in a humidified atmosphere with 5% CO2. To estimate cell viability, cells (5000/well) were separately seeded in 96-well plates for 24 h at 37°C in a 5% CO2 incubator. […] All the experiments were performed in triplicate, and the mean absorbance values were calculated. The IC50 values of the compounds were derived from the mean OD values of the triplicate tests versus the drug concentration curves.\nCell proliferation was assessed by incubating them with Cell Counting Kit-8 reagents (Dojindo, Shanghai, China) for 24 h, 48 h, 72 h, 96 h at 37°C and measuring the absorbance at 450 nm. The experiment was performed in triplicate."}, "[3]": {"tested_on": "human fibrosarcoma cells (HT1080)", "experiment": "CCK8 cytotoxicity assay, HT1080", "type": "cell-based", "details": "HT-1080, CCK8, 48 h", "experimental": "as §1"}, "[4]": {"molecular_target": "T1, catalytic domain of human KGA (cKGA) (Homo sapiens, UniProt O94925)", "T1 sequence (O94925 221-553)": "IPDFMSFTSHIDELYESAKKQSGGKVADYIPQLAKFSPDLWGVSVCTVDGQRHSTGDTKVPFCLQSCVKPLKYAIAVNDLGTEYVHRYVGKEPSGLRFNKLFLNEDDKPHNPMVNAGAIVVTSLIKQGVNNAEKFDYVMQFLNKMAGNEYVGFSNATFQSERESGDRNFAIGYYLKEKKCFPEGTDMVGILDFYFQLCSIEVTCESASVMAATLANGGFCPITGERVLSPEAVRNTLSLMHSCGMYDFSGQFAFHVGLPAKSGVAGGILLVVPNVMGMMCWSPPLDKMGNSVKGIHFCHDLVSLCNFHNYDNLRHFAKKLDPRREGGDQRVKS", "experiment": "In vitro KGA enzyme inhibition assay (GDH-coupled, NADH absorbance 340 nm)", "type": "biochemical", "method": "To validate the finding of the virtual ligand screening, the catalytic domain of human KGA (cKGA) was expressed by recombinant technique. […] Enzyme kinetics has been measured to explore the mode of inhibition.\nSpecific details were referenced to our previous work. Briefly, The catalytical domain of human KGA (cKGA) encoding amino acids 221–553 was cloned into pET26b vector with C-terminal His tag. The cKGA was then expressed in E.coli BL21 (DE3)-RIL-Condon plus. Cultures were grown in LB media contain 35 mg/L kanamycin at 37°C to OD value in 0.6–0.8, then induced at 16°C with 0.4 mM IPTG for 16 h. Cultures were harvested by centrifugation at 3500 g for 8 minutes. Cell pellets were sonicated in a buffer containing 50 mM Hepes (pH 7.5), 500 mM NaCl, 5mM imidazole, […], 1 mM DTT, 0.1% Triton X-100, and final 1 mM PMSF (Sigma-Aldrich USA). The cKGA were purified by affinity chromatography by Ni-NTA agarose, and further purified by size exclusion chromatography (Superdex 200, GE-health care, USA). The purified cKGA was stored in buffer containing 20 mM Hepes (pH 7.5), 200 mM NaCl, 10% glycerol and 3 mM DTT.\nThe KGA profiling assays were to evaluate the compound-dependent inhibition of KGA in vitro catalytic assay. Specific details were referenced to our previous work. Briefly, the KGA catalyzed the glutamine into glutamate plus ammonium, and then glutamate plus NAD converted to α-ketoglutarate and NADH by the catalysis of GDH. The elevated absorbance at 340 nm with the form of NADH was recorded using a microplate reader. The enzymatic activity was measured in 100 μL system. Mixed buffer containing 0.15 M K2HPO4, 50 mM Tris-Acetate pH 8.6, 0.1 mg/mL bovine serum albumin (BSA), 0.25 mM EDTA, 1 mM DTT, 4 mM NAD were prepared. Then, 10 mM glutamine, 1 unit of glutamate dehydrogenase (GDH) and inhibitor were added in the mix. Final concentration of 1 μM cKGA was added to initiate the reaction. Generation of NADH was monitored by 340 nm absorbance every minute for 20 minutes at 37°C. The IC50 values were calculated by fitted regression equation using the-log plot (GraphPad Prism). Each value was on behalf of the means ± SD of three independent tests, each with three replicates."}, "SW1990 cells [5]": {"tested_on": "SW1990 cells", "experiment": "ROS quantification (DCFDA assay)", "type": "cell-based, human", "details": "2.5 or 5 μM, 24 h", "method": "DCFDA assay was performed 24 h after interfered with difference concentration of physapubescin K or DMSO. Cells were incubated with 5 μM 2′,7′-dichlorodihydrofluorescein diacetate (DCFDA, KeyGen, Nanjing, China A124) for 30 min. Cells were washed twice with PBS to remove excess DCFDA, and the labeled cells were then collected in PBS. The fluorescent of 2′,7′-dichloro-fluorescein (DCF) was proportionate to ROS generation and was measured by microplate reader."}, "SW1990 cells [6]": {"tested_on": "SW1990 cells", "experiment": "EdU and DAPI double staining proliferation assay, SW1990", "type": "cell-based, human", "details": "5 μM", "experimental": "The logarithmic growth phase cells were seeded in 24-well plates at 2 × 10^4 ∼ 5 × 10^5 cells per well. After 4–6 h, the medium was removed, the medium containing no or different concentrations of compound was replaced, and 50 μM of EdU was added. 2 h later, the medium was removed, cells washed by PBS. 200 μL of cell fixative (i.e., PBS containing 4% paraformaldehyde) was added and incubated at room temperature for 30 minutes. The solution was discarded and 200 μL of 2 mg/mL glycine was added to each well. After 5 minutes of incubation, the glycine solution was discarded. Each well washed with 200 μL of PBS, rinse for 5 minutes, and PBS was removed. Apollo staining was added to each well with 200 μL of 1 X Apollo® staining solution. After incubation for 30 minutes at room temperature and decolorization, the reaction solution was discarded. Similarly, 200 μL of 1 × Hoechst 33342 solution was added to each well to dye the total DNA. After 30 minutes of incubation at room temperature and the reaction solution was discarded, and then the images were captured and analyzed by fluorescence microscopy."}, "SW1990 cells [7]": {"tested_on": "SW1990 cells", "experiment": "Flow cytometric analysis for apoptosis (Annexin V/PI)", "type": "cell-based, human", "details": "SW1990, 24 h", "method": "SW1990 cells were cultured in six-well plates and treated with different concentrations of physapubescin K for 24 h. Then the cells were harvested, washed twice with ice-cold PBS, and mixed in 100 μL of 1× binding buffer (10 mM HEPES/ NaOH, pH 7.4, 140 mM NaCl, 2.5 mM CaCl2). After incubating with Annexin-V and PI staining liquid (Nanjing KeyGen Biotech. Inc.) for 15 min at room temperature, the cells were examined by flow cytometry (BD Biosciences, FACSCalibur)."}}, "data": [{"molecule": "CO[C@H]1O[C@@H]([C@@H](C)[C@H]2C[C@H](OC(C)=O)[C@H]3[C@@H]4C[C@H]5O[C@]56[C@@H](O)C=CC(=O)[C@]6(C)[C@H]4CC[C@@]32C)C[C@]2(C)O[C@]12C", "note": "[physapubescin K]", "values": [{"measurement": "CI value", "setting": "SW1990 cells [1]", "result": "less than 0.8"}, {"measurement": "IC50", "setting": "[2]; Homo sapiens, SW1990, 48 h, read-out: IC50 SW1990", "result": "2210 ± 10", "unit": "nM"}, {"measurement": "sensitivity of cell growth to treatment", "setting": "[2]; SW1990, 1 μM", "result": "sensitive"}, {"measurement": "relative cell vitality", "setting": "[2]; SW1990, 2 μM, 24 h", "result": 50.3, "unit": "%"}, {"measurement": "relative cell vitality", "setting": "[2]; SW1990, 2 μM, 36 h", "result": 37.6, "unit": "%"}, {"measurement": "relative cell vitality", "setting": "[2]; SW1990, 2 μM, 48 h", "result": 27.3, "unit": "%"}, {"measurement": "cell proliferation", "setting": "[2]; SW1990, 2 μM, alleviated by addition of 4 mM glutamate", "result": "significantly inhibited cell proliferation"}, {"measurement": "IC50", "setting": "[3]", "result": "2850 ± 600", "unit": "nM"}, {"measurement": "IC50", "setting": "[4]; 1 μM cKGA, 10 mM glutamine, 37°C", "result": "520 ± 60", "unit": "nM"}, {"measurement": "catalytic rate of cKGA", "setting": "[4]; 5 μM compound, after substrate concentration was increased from 10 mM to 40 mM (0 at 10 mM)", "result": "0.02 ∆OD/min"}, {"measurement": "inhibition of the activity of KGA", "setting": "[4]; 5 μM compound, substrate concentration 10 mM", "result": "completely inhibit"}, {"measurement": "mode of inhibition", "setting": "[4]; higher concentration, increases in Km for glutamine", "result": "competitive"}, {"measurement": "mode of inhibition", "setting": "[4]; low concentration, decrease in Vmax, little effect on Km for glutamine", "result": "non-competitive"}, {"measurement": "reversibility of inhibition", "setting": "[4]; saturated inhibition assay, 5 μM", "result": "reversible"}, {"measurement": "intracellular reactive oxygen species (ROS) levels", "setting": "SW1990 cells [5]", "result": "significantly increase"}, {"measurement": "proliferated cell ratio", "setting": "SW1990 cells [6]", "result": "close to zero"}, {"measurement": "apoptosis", "setting": "SW1990 cells [7]", "result": "induce apoptosis"}]}]}
